# In article PMC6753678, “Fueling Open Innovation for Malaria Transmission-Blocking Drugs: Hundreds of Molecules Targeting Early Parasite Mosquito Stages” (Frontiers in Microbiology, 2019):
# Where two headings read alike, the source gives them in different places.
# Tests used:
# [1] = tested on: 3D7-strain P. falciparum asexual parasites; assay: P. falciparum asexual growth inhibition assay (Pf GIA); format: cell-based, Plasmodium falciparum; conditions: dose response confirmation; read-out: Pf asexual growth inhibition assays IC50
# Outline: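 LDH readout: absorbance at 650 nm after 10 min at room temperature with lactate/APAD/NBT/diaphorase mix on thawed plates. Cultures (0.25% parasitemia, 2% hematocrit) were treated 72 h at 37°C in low-oxygen gas. Inhibition was normalised to 50 μM chloroquine and DMSO; n=3 biological replicates.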
# HepG2 cells = assay: HepG2 cytotoxicity assay; conditions: for Pb ODA (this manuscript) HepG2 cytoxicity: HepG2 cytotoxicity listed with the Pb ODA data set (this manuscript); for IC50: read-out: HepG2 cytotoxicity assay IC50, dose response confirmation; for Unified cytotox: HepG2 values of the three screens unified
# Outline: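 Cells are plated at 2,500 per well on compound-treated plates in MEM containing 10% fetal bovine serum and 1% NEAA, then incubated 48 h at 37°C.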
# [2] = tested on: P. berghei ookinete development; conditions: for % inhibition, Replicate A / % inhibition, Replicate B: primary screen at 1 μM
# [3] = read-out: Pb ODA (this manuscript) IC50, P. berghei ookinete development assay, this manuscript
# [4] = read-out: Pb Ookinete development assay IC50, dose response confirmation
# [5] = read-out: Pb ODA IC50, this manuscript
Structure (SMILES),IC50 [1],Pb ODA (this manuscript) HepG2 cytoxicity (HepG2 cells),IC50 (HepG2 cells),Is compound selective in assay? Pb ODA active? [2],"% inhibition, Replicate A [2]","% inhibition, Replicate B [2]","IC50 [2, 3]","IC50 [2, 4]",Unified cytotox (HepG2 cells),"Is compound selective in assay? Pb ODA active? ([2]; 1: YES, 0: NO)","IC50 [2, 5]","HepG2 cytoxicity (Pb ODA, this manuscript) (HepG2 cells)"
COc1cc(F)c2ncc(Cl)c(CCN3CCC(NCc4ccc5c(c4)NC(=O)CO5)CC3)c2c1.Cl [TCMDC-135623],339 nM,12.30 µM,12300 nM,1 (key: 1: YES; 0: NO),70.96%,86.73%,540 nM,541 nM,–,–,–,–
COc1ccc2ncc(F)c(CCN3C4CCC3CC(NCc3ccc5c(c3)OCCO5)C4)c2n1.Cl (stereo not shown) [TCMDC-135638],995 nM,39.81 µM,39800 nM,0 (key: 1: YES; 0: NO),30.43%,54.56%,4240 nM,4240 nM,–,–,–,–
COc1ccc2ncc(C#N)c(CCN3CCC(NCc4ccc5c(c4)NC(=O)CO5)CC3)c2c1.Cl [TCMDC-135645],553 nM,38.90 µM,38900 nM,1 (key: 1: YES; 0: NO),122.09%,92.16%,460 nM,457 nM,–,–,–,–
COc1ccc(CCc2ccc(-c3c(C)[nH]c(C)c(Cl)c3=O)cc2)cc1 [TCMDC-135654],20 nM,–,100000 nM,–,86.19%,104.99%,–,143 nM,100.00 µM,1 (1: YES),140 nM,–
COc1ccc(C#Cc2ccc(-c3c(C)[nH]c(C)c(Cl)c3=O)cc2)cc1 [TCMDC-135655],73 nM,–,100000 nM,–,78.44%,70.65%,–,1160 nM,100.00 µM,1 (1: YES),1160 nM,–
Cc1[nH]c(C)c(-c2ccc(OCc3cccc(C(F)(F)F)c3)nc2)c(=O)c1Br [TCMDC-135656],41 nM,–,8610 nM,–,92.61%,102.80%,–,106 nM,8.61 µM,1 (1: YES),110 nM,8.61 µM
Cc1[nH]c(C)c(-c2ccc(OCc3ccc(F)cc3)nc2)c(=O)c1Br [TCMDC-135657],173 nM,–,100000 nM,–,61.60%,80.51%,–,597 nM,100.00 µM,1 (1: YES),600 nM,–
Cc1[nH]c(C)c(-c2ccc(OCc3cc(F)cc(F)c3)nc2)c(=O)c1Cl [TCMDC-135676],36 nM,–,7850 nM,–,78.17%,102.44%,–,2070 nM,7.85 µM,0 (0: NO),2070 nM,7.85 µM
Cc1[nH]c(C)c(-c2ccc(-c3ccc(OC(F)(F)F)cc3)nc2)c(=O)c1Cl [TCMDC-135677],397 nM,–,23700 nM,–,103.64%,93.64%,–,265 nM,23.71 µM,1 (1: YES),270 nM,23.71 µM
Cc1[nH]c(C)c(-c2ccc(CCc3ccc(N)cc3)cc2)c(=O)c1Cl [TCMDC-135678],279 nM,–,100000 nM,–,46.90%,71.02%,–,1090 nM,100.00 µM,1 (1: YES),1090 nM,–
Cc1[nH]c(C)c(-c2ccc(OCc3cc(F)cc(F)c3)nc2)c(=O)c1Br [TCMDC-135683],188 nM,–,25400 nM,–,82.45%,85.99%,–,409 nM,25.41 µM,1 (1: YES),410 nM,25.41 µM
COc1nc2c(CCN3CCC(NCc4ccc5c(n4)NC(=O)CO5)CC3)c(Cl)cnc2cc1F.Cl [TCMDC-135766],2740 nM,42.66 µM,42700 nM,1 (key: 1: YES; 0: NO),65.11%,58.19%,3720 nM,3720 nM,–,–,–,–
